13 molecules from DBAASP can be followed below.

In brackets after ≈: the same amount, converted by molar mass. Several values for one entry are separate records, joined by “and”; a condition that tells them apart may be missing. Identical values can stand only once.

What all share (experiment): ≥ marks a high value that may be exact or a test limit, other limits are often not marked, values filed in µg/mL are converted to µM
Assay [1] relates to Klebsiella pneumoniae ATCC 700603.
The test system of assay [2] is Escherichia coli ATCC 25922.
The subject of assay [3] is Staphylococcus aureus ATCC 25923.
The next assay deals with Acinetobacter baumannii.
The test system of assay [4] is Pseudomonas aeruginosa ATCC 9027.
The test system of assay [5] is Klebsiella pneumoniae ATCC 10031.
The test system of assay [6] is Salmonella enterica subsp. enterica serovar Typhimurium ATCC 14028.
Assay [7] deals with Escherichia coli DH5alpha.
The subject of assay [8] is Staphylococcus aureus ATCC 6538.
Assay [9] concerns Acinetobacter baumannii ATCC 19606.
The test system of assay [10] is Pseudomonas aeruginosa ATCC 27853.
For assay [11], the system named is Klebsiella pneumoniae ATCC 13883.
For assay [12], the system named is Enterococcus faecalis ATCC 29212.
Assay [13] relates to Escherichia coli ATCC 25726.
The subject of another assay is Bacillus subtilis 168.
The test system of assay [14] is Candida albicans ATCC 90028.

What is called MIC is the smallest concentration in the dilution series that meets the test's criterion for growth inhibition. The low end stands for greater potency, the high end for weaker potency.

Take `CC[C@H](C)[C@H](NC(=O)[C@H](C)N)C(=O)N[C@@H](Cc1c[nH]c2ccccc12)C(=O)N[C@@H](CCCN=C(N)N)C(=O)N[C@@H](CCCCN)C(=O)N[C@@H](C)C(=O)N[C@H](C(=O)N[C@@H](CCCN=C(N)N)C(=O)N[C@@H](CCCN=C(N)N)C(=O)N[C@@H](CC(C)C)C(=O)N[C@H](C(=O)N[C@@H](CCCCN)C(=O)N[C@@H](CC(C)C)C(=O)N[C@H](C(=O)N[C@H](C(N)=O)C(C)C)[C@@H](C)CC)C(C)C)[C@@H](C)O` [AIWRKATRRLVKLIV]: the MIC in [1] was determined as 25 µM (≈ 45.6 µg/mL); in [2] it was 12.5 µM (≈ 22.8 µg/mL); in assay [3] it was 12 µM (≈ 21.9 µg/mL); in the assay with Acinetobacter baumannii it was 3.12 µM (≈ 5.69 µg/mL); in [4], 3 µM (≈ 5.47 µg/mL).

Turning to `CC[C@H](C)[C@@H]1NC(=O)[C@H](CCCCN)NC(=O)[C@@H](NC(=O)[C@@H](NC(=O)[C@@H](NC(=O)[C@@H](NC(=O)[C@@H]2CCCN2C(=O)[C@H](CC(C)C)NC(=O)[C@H](Cc2ccccc2)NC(=O)[C@H](CC(N)=O)NC(=O)[C@H](C)NC(=O)[C@H](C)NC(=O)[C@H](CC(C)C)NC(=O)CNC(=O)[C@H](C)NC(=O)[C@@H](N)Cc2ccccc2)[C@@H](C)O)[C@@H](C)CC)[C@@H](C)CC)CSSC[C@@H](C(=O)O)NC(=O)[C@H](CCCCN)NC(=O)[C@H](Cc2ccc(O)cc2)NC(=O)[C@H](CO)NC1=O` [FAGLAANFLPTIICKISYKC], the figures for the minimum inhibitory concentration (MIC) in assay [5], in assay [6] and in [7] were at least 46 µM, over 46 µM and at least 46 µM, respectively.

Take `CC(C)C[C@H](NC(=O)[C@H](C)NC(=O)[C@H](CC(C)C)NC(=O)[C@H](CC(C)C)NC(=O)[C@H](CCCCN)NC(=O)[C@H](CCCCN)NC(=O)[C@H](C)NC(=O)[C@H](CC(C)C)NC(=O)[C@H](CCCCN)NC(=O)[C@H](C)NC(=O)[C@H](CC(C)C)NC(=O)[C@H](CCCCN)NC(=O)[C@H](CCCCN)NC(=O)[C@H](C)NC(=O)[C@@H](N)Cc1ccccc1)C(N)=O` [FAKKLAKLAKKLLAL]: the minimum inhibitory concentration (MIC) in assay [8] is 3.02 µM (≈ 5 µg/mL); in assay [4] it was 30.2 µM (≈ 50 µg/mL).

On to `CC(C)C[C@H](NC(=O)[C@H](C)NC(=O)[C@H](Cc1ccccc1)NC(=O)[C@H](CCCCN)NC(=O)[C@H](CCCCN)NC(=O)[C@H](C)NC(=O)[C@H](CC(C)C)NC(=O)[C@H](CCCCN)NC(=O)[C@H](C)NC(=O)[C@H](CC(C)C)NC(=O)[C@H](CC(C)C)NC(=O)[C@H](CCCCN)NC(=O)[C@H](C)NC(=O)[C@@H](N)Cc1ccccc1)C(N)=O` [FAKLLAKLAKKFAL], for which the MIC in assay [8] worked out at 32 µM (≈ 50 µg/mL); in assay [4] it was 128 µM (≈ 200 µg/mL).

The molecule `CC[C@H](C)[C@H](NC(=O)CNC(=O)[C@H](CCCCN)NC(=O)[C@H](CC(C)C)NC(=O)[C@@H](N)Cc1ccccc1)C(=O)N[C@H](C(=O)N[C@@H](CC(=O)O)C(=O)N[C@H](C(=O)N[C@H](C(=O)N[C@@H](CO)C(=O)N[C@@H](CC(N)=O)C(=O)N[C@@H](Cc1c[nH]c2ccccc12)C(=O)N[C@@H](CC(C)C)C(N)=O)C(C)C)[C@@H](C)O)[C@@H](C)CC` [FLKGIIDTVSNWL] yielded an MIC in [9] of over 26.6 µM.

`CC[C@H](C)[C@@H]1NC(=O)[C@H](CCCCN)NC(=O)[C@@H](NC(=O)[C@@H](NC(=O)[C@@H](NC(=O)[C@@H](NC(=O)[C@@H]2CCCN2C(=O)[C@H](CC(C)C)NC(=O)[C@H](Cc2ccccc2)NC(=O)[C@H](CCCCN)NC(=O)[C@H](C)NC(=O)[C@H](C)NC(=O)[C@H](CC(C)C)NC(=O)[C@H](CCCCN)NC(=O)[C@H](CCCCN)NC(=O)[C@H](CC(C)C)NC(=O)[C@H](CC(C)C)NC(=O)[C@H](CCCCN)NC(=O)[C@H](CC(C)C)NC(=O)[C@@H](N)Cc2ccccc2)[C@@H](C)O)[C@@H](C)CC)[C@@H](C)CC)CSSC[C@@H](C(=O)O)NC(=O)[C@H](CCCCN)NC(=O)[C@H](Cc2ccc(O)cc2)NC(=O)[C@H](CO)NC1=O` [FLKLLKKLAAKFLPTIICKISYKC]: the MIC in assay [5] is at least 35.9 µM; in assay [6], 35.9 µM (≈ 99.9 µg/mL); in [7], 18 µM (≈ 50 µg/mL).

With `CC(C)C[C@H](NC(=O)[C@H](CC(C)C)NC(=O)[C@H](CCCCN)NC(=O)[C@H](CCCCN)NC(=O)[C@H](CC(C)C)NC(=O)[C@@H](NC(=O)[C@H](CCCCN)NC(=O)[C@H](CC(C)C)NC(=O)[C@@H](N)Cc1ccccc1)[C@@H](C)O)C(N)=O` [FLKTLKKLL], the MIC in assay [2] amounted to 58 µM (≈ 63.9 µg/mL); in assay [3] it was 58 µM (≈ 63.9 µg/mL); in [10], 7.25 µM (≈ 7.99 µg/mL); in assay [9], 58 µM (≈ 63.9 µg/mL).

With `CC[C@H](C)[C@H](NC(=O)CNC(=O)[C@H](CO)NC(=O)[C@H](CC(C)C)NC(=O)[C@@H](NC(=O)[C@H](CCCN=C(N)N)NC(=O)CNC(=O)[C@@H](NC(=O)[C@H](CC(C)C)NC(=O)[C@@H]1CCCN1C(=O)[C@H](CC(C)C)NC(=O)[C@@H](N)Cc1ccccc1)[C@@H](C)CC)C(C)C)C(=O)N[C@@H](CC(C)C)C(=O)NCC(=O)N[C@@H](Cc1c[nH]c2ccccc12)C(=O)N[C@@H](CCCCN)C(=O)N[C@@H](CCCN=C(N)N)C(=O)N[C@@H](CCCCN)C(=O)N[C@@H](CCCN=C(N)N)C(=O)N[C@@H](Cc1ccccc1)C(=O)NCC(N)=O` [FLPLIGRVLSGILGWKRKRFG], the MIC is 4 µM and 8 µM in [11]; 10 µM (≈ 24.1 µg/mL) in assay [12]; 5 µM and 10 µM in [6].

Regarding `CC(C)C[C@H](NC(=O)[C@H](CC(C)C)NC(=O)CNC(=O)[C@H](CO)NC(=O)[C@H](CC(C)C)NC(=O)[C@H](CC(C)C)NC(=O)CNC(=O)[C@@H](NC(=O)[C@@H](NC(=O)[C@H](CC(C)C)NC(=O)[C@@H]1CCCN1C(=O)[C@H](CC(C)C)NC(=O)[C@@H](N)Cc1ccccc1)C(C)C)[C@@H](C)O)C(N)=O` [FLPLVTGLLSGLL], the MIC in assay [3] is 64 µM (≈ 85.9 µg/mL); in assay [13], at least 128 µM.

As for `CC(C)[C@H](NC(=O)[C@H](CCCCN)NC(=O)[C@H](CCCCN)NC(=O)[C@@H](NC(=O)[C@@H](NC(=O)[C@H](CCCCN)NC(=O)[C@H](CCCCN)NC(=O)[C@@H](NC(=O)[C@@H](NC(=O)[C@H](CCCCN)NC(=O)[C@H](CCCCN)NC(=O)[C@@H](NC(=O)[C@@H](NC(=O)CN)C(C)C)C(C)C)C(C)C)C(C)C)C(C)C)C(C)C)C(N)=O` [GVVKKVVKKVVKKV], the minimum inhibitory concentration (MIC) in assay [7] was at least 125 µM; in the assay with Bacillus subtilis 168, at least 65 µM.

As for `CC[C@H](C)[C@H](N)C(=O)N[C@@H](CCCCN)C(=O)N[C@H](C(=O)N1CCC[C@H]1C(=O)N[C@@H](C)C(=O)N[C@@H](Cc1ccccc1)C(=O)N[C@H](C(=O)N[C@@H](CCCCN)C(=O)N[C@@H](CC(=O)O)C(=O)N[C@H](C(=O)N[C@@H](CC(C)C)C(=O)N[C@@H](CCCCN)C(=O)N[C@@H](CCCCN)C(=O)N[C@H](C(=O)N[C@@H](C)C(=O)N[C@@H](CCCCN)C(=O)NCC(=O)N[C@H](C(=O)N[C@H](C(=O)N[C@@H](CO)C(=O)N[C@@H](C)C(=O)N[C@H](C(=O)N[C@@H](C)C(=O)NCC(=O)N[C@@H](C)C(=O)N[C@@H](CC(C)C)C(=O)N[C@H](C(=O)N[C@@H](CCC(N)=O)C(=O)O)[C@@H](C)O)C(C)C)[C@@H](C)CC)C(C)C)C(C)C)[C@@H](C)O)C(C)C)[C@@H](C)CC` [IKIPAFVKDTLKKVAKGVISAVAGALTQ], the MIC in assay [1] is 20 µM (≈ 57.4 µg/mL); in assay [3], 20 µM (≈ 57.4 µg/mL); in assay [14], at least 80 µM; in assay [10], 20 µM (≈ 57.4 µg/mL); in assay [13] it was 20 µM (≈ 57.4 µg/mL).

With `CC[C@H](C)[C@H](N)C(=O)N[C@@H](CCCCN)C(=O)N[C@H](C(=O)N1CCC[C@H]1C(=O)N1CCC[C@H]1C(=O)N[C@H](C(=O)N[C@H](C(=O)N[C@@H](CCCCN)C(=O)N[C@@H](CC(=O)O)C(=O)N[C@H](C(=O)N[C@@H](CC(C)C)C(=O)N[C@@H](CCCCN)C(=O)N[C@@H](CCCCN)C(=O)N[C@H](C(=O)N[C@@H](C)C(=O)N[C@@H](CCCCN)C(=O)NCC(=O)N[C@H](C(=O)N[C@@H](CC(C)C)C(=O)N[C@@H](CO)C(=O)N[C@H](C(=O)N[C@H](C(=O)N[C@@H](C)C(=O)NCC(=O)N[C@@H](C)C(=O)N[C@@H](CC(C)C)C(=O)N[C@@H](CO)C(=O)N[C@H](C(=O)O)[C@@H](C)O)[C@@H](C)CC)[C@@H](C)O)C(C)C)C(C)C)[C@@H](C)O)C(C)C)[C@@H](C)CC)[C@@H](C)CC` [IKIPPIVKDTLKKVAKGVLSTIAGALST], the figures for the MIC in [3], in assay [14] and in assay [13] were 80 µM (≈ 229 µg/mL), at least 160 µM and at least 40 µM, respectively.

For the molecule `CC[C@H](C)[C@@H]1NC(=O)[C@H](CCSC)NC(=O)[C@@H]2CCCN2C(=O)[C@@H]2CCCN2C(=O)[C@@H](NC(=O)[C@@H](N)Cc2c[nH]c3ccccc23)CSSC[C@@H](C(=O)N[C@@H](CO)C(=O)N[C@@H](CCCN=C(N)N)C(=O)N[C@@H](Cc2ccccc2)C(N)=O)NC(=O)[C@H](CC(C)C)NC(=O)[C@@H]2CCCN2C1=O` [WCPPMIPLCSRF], the MIC in assay [3] is over 200 µM; in [13], at least 200 µM.
